The values that follow come from PubChem BioAssay (NCI).

Common to all, as to test: DTP human tumour cell line panel, 48 h
The subject of assay [1] is MOLT-4 leukemia.
The subject of assay [2] is SNB-19 CNS.
Assay [3] concerns K-562 leukemia.
Assay [4] deals with HCC-2998 colon.
Assay [5] relates to LOX IMVI melanoma.
In assay [6] the test system is RPMI-8226 leukemia.
The subject of assay [7] is CCRF-CEM leukemia.
Assay [8] has as its system SN12C renal.
In assay [9] the test system is UO-31 renal.
Assay [10] concerns HOP-62 NSCLC.
Assay [11] relates to OVCAR-8 ovarian.
Assay [12] concerns HT29 colon.
Assay [13] has as its system 786-0 renal.
The test system of assay [14] is T-47D breast.
Assay [15] deals with SK-OV-3 ovarian.
The subject of assay [16] is MDA-MB-231 breast.
Assay [17] deals with SK-MEL-5 melanoma.

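Growth conditions: 96-well plates. Treatment: test compound, 48 hours, 5 concentrations. Analysis: linear interpolation between bracketing concentrations; unreached endpoints set to highest concentration. TGI denotes the concentration required for complete inhibition of growth.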

One may read the TGI as the concentration at which net growth stops. A higher TGI goes with lower sensitivity of the cells. As to `Cc1cc(N)c(C)c2c1[nH]c1ccc(O)cc12`, the TGI in assay [1], in assay [2], in [3], in assay [4], in [5] and in [6] was above 100 µM in each case. Besides, the TGI in assay [7] is 91.5 µM; in assay [8], above 100 µM; in [9], above 100 µM; in [10] it was above 100 µM; in [11], above 100 µM; in assay [12], above 100 µM. The concentration for total growth inhibition (TGI) in assay [13] is above 100 µM.

With `Nc1ccc2c(c1)N(C(=O)c1cc3cc(NC(=O)c4cc5ccccc5o4)ccc3[nH]1)CC2CCl` (configuration not stated), the TGI is above 100 µM in [1]; 16.1 µM in assay [2]; above 100 µM in assay [5]; 0.683 µM in [14]; 0.287 µM in assay [6]; above 46.4 µM in assay [8]. For the same compound, the TGI in [15] is above 33.4 µM; in [9], 13.1 µM; in [10], 0.804 µM; in [11] it was 1.45 µM; in assay [12] it was above 32.7 µM; in assay [13], above 37.9 µM.

Turning to `CC(C)(C)OC(=O)N1CCc2[nH][nH]c(=O)c2C1`, the TGI in [1], in assay [2], in [3], in assay [16], in assay [6] and in [7] was above 100 µM throughout. For the same compound, the TGI in assay [8], in [15], in assay [9], in assay [10], in assay [11] and in [12] was above 100 µM each time. In assay [13], this compound gave a TGI above 100 µM.

Consider `COc1cc(C2SCC(=O)N2c2ccccn2)cc(OC)c1OC` (configuration not stated), for which the TGI in assay [1], in assay [2], in [3], in assay [16], in assay [4] and in assay [5] was above 100 µM each time. For the same compound, the TGI in [6], in [17], in assay [7], in [8], in [15] and in assay [9] was above 100 µM throughout. In addition, the TGI in assay [11], in [12] and in assay [13] was above 100 µM throughout.

For `CC(C)C(=O)[C@@]1(C)SC[C@H]2CCN=C21`, the TGI in assay [1], in assay [2], in [3], in assay [4], in assay [5] and in assay [6] was above 100 µM throughout. Further, the TGI in assay [17], in [7], in assay [8], in [15], in assay [9] and in assay [11] was above 100 µM each time. In addition, the TGI in assay [12] and in [13] was above 100 µM each time.

On to `CN=c1nc2sc3c(c2c(NC(=S)NC)s1)CCCC3`, for which the TGI in [1], in assay [2], in assay [3], in assay [16], in assay [4] and in assay [5] was above 100 µM throughout. The TGI in assay [6], in [17], in assay [7], in assay [8], in assay [15] and in [9] was above 100 µM throughout. The TGI in [10], in [12] and in assay [13] was above 100 µM each time.

With `CCCCc1c(N(C)C)c(OC(C)=O)c(-c2cn(C)c3ccccc23)oc1=O`, the TGI is above 100 µM in [1]; 90.3 µM in assay [2]; above 100 µM in [14]; 26.8 µM in assay [17]; above 100 µM in assay [7]; 59.8 µM in [8]. Also, the TGI in assay [15] was above 100 µM; in assay [9], 53 µM; in assay [10], 55.7 µM; in [12] it was 47.5 µM; in [13], above 100 µM.

For `COc1ccc(C2C(Cl)C(=O)N2n2cnc3ccccc3c2=O)cc1` (configuration not stated), the TGI in [1], in assay [2], in assay [3], in [4], in assay [5] and in assay [6] was above 100 µM in each case. The TGI in [17], in assay [8], in [15], in [9], in assay [10] and in [11] was above 100 µM each time. The TGI in assay [12] and in [13] was above 100 µM throughout.

As for `COC(=O)c1ccc(C(=O)NC(Cc2ccc(Oc3cc(CC(NC(=O)c4ccccc4C(=O)OC)C(=O)OC)ccc3OC)cc2)C(=O)OC)cc1` (configuration not stated), the TGI in assay [1], in assay [2], in assay [3], in assay [4], in [5] and in [14] was above 100 µM each time. In addition, the TGI in [6], in assay [7], in assay [8], in [15], in assay [9] and in [10] was above 100 µM each time. The TGI in assay [11], in assay [12] and in assay [13] was above 100 µM throughout.

With `COc1cc2cc3c4c(cc(OC)c(OC)c4c2cc1OC)CCN3C(=O)OCCN1CCNCC1`, the TGI came out at 34.8 µM in assay [1]; 43.3 µM in assay [2]; 31.2 µM in [3]; 29.8 µM in [4]; 26.6 µM in assay [5]; 34.6 µM in [6]. Further, the TGI in assay [17] is 28.2 µM; in [7], 44.6 µM; in [8], 29.9 µM; in assay [15], 31.8 µM; in assay [9], 28.1 µM; in [10], 31.5 µM. Further, the results for the TGI in [11], in [12] and in [13] were 29.7 µM, 25.8 µM and 23.8 µM, respectively.
